The values below come from patent EP0361645B1, “Organic hydrazine derivatives for pharmaceutical use” (ROHM AND HAAS COMPANY, priority 1988, dated 1990).

Experiment [1] concerns intact L5D0 hornworms. Briefly: Premature head capsule apolysis in intact L5D0 hornworms, injected. The experiment is classed as in vivo, M. sexta. The settings on record: for ED50: Manduca sexta, L5D0 larvae, read-out: 50% effective dose. How it is done:
(§1) L4D1 means fourth instar, first day after molting. L4 animals 36 hours after ecdysis were ligated, decapitated and next day injected with varying doses of compound in 1 - 2 ul DMSO. They were scored as follows: 0 = normal L4 abdomens with no L5 crochets or spiracle apolysis; 1 = exposed dorsal vessel (response to moderate levels of molting hormone in the presence of low JH levels); 2 = L5 crochets formed but no spiracle apolysis; 3 = L5 crochets formed and mild spiracle apolysis; 4 = strong molting response, both L5 crochets and spiracle cuticle synthesized. These methods are an adaptation of the method of J. W. Truman, L. M. Riddiford, L. Safranek, 39 Dev. Biol 247 (1974). Injection and scoring of L5D3 abdomens (weighing 6.5 - 7.5 g) are also adaptations of previous methods in H. F. Nijhout, 22 J. Insect Physiol. 453 (1976). Mature feeding stage fifth instar animals weighing 8.5 - 9.5 g were ligated and decapitated, and immediately injected with Example No. 3 in 2 - 5 ul DMSO. Animals were held over moistened filter paper at 25 ° C and were scored after three days. Scoring was as follows: 0 = normal undeveloped blue-green L5D3 abdomen; 1 = light dorsal vessel exposure; 2 = dorsal vessel well-exposed with mild cuticular blanching, abdominal contraction; 3 = complete prepupal cuticle formation with strong abdominal contraction and strong cuticular blanching. For both L4 and L5 abdomens, 50% effective doses were determined by plotting the mean score for all individuals vs. dose, then determining the dose which gives a score of 2.0 and 1.5 respectively. Intact L5D0 hornworms were either allowed to feed on treated commercial black cutworm diet or injected into a proleg and scored after 48 hours. The 50% effective dose was calculated by plotting percentage of the population bearing a prematurely apolysed head capsule vs. dose. For all experiments in this table at least 5 different doses with 10 animals per dose were used.
The dosage differences between the two compounds was even more dramatic in bioassays on intact (unligated) L5D0 hornworms. […]

The subject of experiment [2] is intact L5D0 hornworms. Briefly: Premature head capsule apolysis in intact L5D0 hornworms, fed treated diet. The experiment is classed as in vivo, M. sexta. The settings on record: for ED50: L5D0 larvae, oral, read-out: 50% effective dose. How it is done: Lepidoptera display the onset of a larval molt by slippage of the head capsule down over the mandibles during formation of an underlying pharate head capsule; this morphological marker accompanies epidermal apolysis which ordinarily occurs at or near peak molting hormone titers. Example No. 3 causes a rapid, premature apolysis in newly ecdysed fifth instar day 0 (L5DO) M. sexta larvae. Clear signs of head capsule apolysis are evident 24 hours after the initiation of feeding.
as §1
The dosage differences between the two compounds was even more dramatic in bioassays on intact (unligated) L5D0 hornworms. If the compounds are injected, Example No. 3 was 67-fold as effective as 20-hydroxyecdysone, while if administered orally, it was over 670-fold as potent.
Hemolymph concentrations of 14C-Example No. 3 were measured by feeding L5D0 hornworm larvae artificial diet containing the labelled compound. At specified intervals thereafter measured volumes of hemolymph were collected, extracted and analyzed by thin layer chromatography and high performance liquid chromatography. […] Blood levels then declined rapidly, but remained at a residual level of about 3 uM for at least 36 hours thereafter.

The next experiment deals with Kr cells. The experiment is described as follows: Process elaboration and inhibition of cell proliferation in Kr cells. Format: cell-based, Drosophila. As to conditions: Drosophila melanogaster; 48 hours incubation; initial cell density 2 X 10^6 cells/ml. How it is done: The invention will now be further described by way of exemplification and by reference to the drawings in which; • Figure 1. Both 20-hydroxyecdysone and Example No. 3 induce process elaboration (A) and inhibition of cell proliferation (B) in Kr cells in a dose-dependent manner. Initial cell density was 2 X 10^6 cells/ml; after incubation of 1 ml aliquots of the cells with the compound for 48 hours the cells were triturated gently and the percentage of cells responding (with processes longer than approximately 17 um, see Cherbas et al. 189 Wilhelm Roux's Arch. 1 (1980)) and total cell density was determined by hemocytom- eter counting, relative to ethanol (1 ul)-treated controls. Determinations were in triplicate for each dose. […] Induction of acetylcholinesterase by varying concentrations of 20-hydroxyecdysone and Example No. 3. Kr cells at an initial density of 3 X 10^6 cells/ml (10 ml per sample) were incubated with the agonist for three days. After harvesting, by centrifugation at 3000 X g, the cell pellets were washed with Robb's Drosophila saline (18, 2 X 5 ml) at 4 ° C, then lysed by sonication in 1 ml of phosphate buffer (pH 7.4, I = 0.1 M) containing 0.5 M NaCI, 0.25 M EDTA and 0.5% TRITON? X-100. See Cherbas, 197 Science 275 (1977). Triton is a registered trademark of Rohm and Haas Company for a alkylaryl polyoxyethylene glycol surfactant. After centrifugation at 16,000 X g, the supernatants were assayed for acetylcholinesterase activity by an adaptation of the method of Ellman et al., 7 Biochem. Pharmacol. 88 (1961), by subtracting out any 412 nm absorbance observed in incubations in the presence of 2 X 10-5 eserine sulfate. Thus reaction mixtures contained 50 ul of enzyme extract, 20 ul eserine (blank tubes only) and 1.0 ml of 0.5 mM acetylthiocholine, 0.3 mM dithiobisnitrobenzoic acid in phosphate buffer (pH 7.4, I = 0.1 M). Incubations were at 25 ° C for two hours; reactions in active tubes were terminated by addition of eserine. Absorbance at 412 nm was then measured. Protein concentration in extracts was measured by the Biorad method. […] Scatchard plot of ^3H-ponasterone A binding to Kr cell cytosolic receptor extracts in the presence of differing concentrations of Example No. 3. Cytosolic extract preparation and ecdysteroid receptor assays were essentially as described in Sage, 111 Meth. in Enzymol. 458 (1985). Example No. 3 was added in 1 ul DMSO to 50 ul of radioligand in 10 mM Tris buffer (pH 7.2) and 50 ul of undiluted cytosol extract. […] Ecdysteroid titers were measured by a radioimmunoassay adapted from Warren et al., 40 Experientia 393 (1984) with Protein A-Staph. aureus suspension (Sigma) used as the reagent to separate bound from free ligand. […]

As usually defined, the EC50 is the concentration giving half of the maximal effect. A higher EC50 goes with a need for much substance. Regarding `CC(C)(O)CC[C@@H](O)[C@](C)(O)[C@H]1CC[C@@]2(O)C3=CC(=O)[C@@H]4C[C@@H](O)[C@@H](O)C[C@]4(C)[C@H]3CC[C@]12C` [20-hydroxyecdysone, reference compound], the ED50 is 181 mg/kg in the experiment on intact L5D0 hornworms [1] and greater than 2000 mg/kg in the experiment with intact L5D0 hornworms [2] (Manduca sexta). Further, the head capsule slippage result in the experiment on intact L5D0 hornworms [2] (feeding up to 2000 ppm, L5D0 hornworm larvae) is “failed to elicit head capsule slippage”. In the experiment with Kr cells, this compound displayed an EC50 of 0.035 µM.
In the case of `CC(C)(C)N(NC(=O)c1ccccc1)C(=O)c1ccccc1` [Example No. 3, N'-t-butyl-N,N'-dibenzoylhydrazine], the figures for the ED50 with intact L5D0 hornworms [1] and in the experiment with intact L5D0 hornworms [2] (Manduca sexta) were 3.4 mg/kg and 3 mg/kg, respectively. Also, the “fold as effective as 20-hydroxyecdysone” value in the experiment on intact L5D0 hornworms [1] (intact L5D0 hornworms) is listed as 67 fold. In addition, the ED95 with intact L5D0 hornworms [2] (Manduca sexta, po, L5D0 hornworm larvae, in artificial diet, read-out: 95% effective dose for premature molting) was roughly 10 mg/kg. Also, in the experiment on intact L5D0 hornworms [2] (intact L5D0 hornworms, administered orally), the “fold as potent as 20-hydroxyecdysone” value is “over 670 fold”. Also, in the experiment on intact L5D0 hornworms [2] (newly ecdysed L5D0 larvae, after the initiation of feeding), the “time to clear signs of head capsule apolysis” value came out at 24 h. In the experiment with Kr cells, this compound gave an EC50 of 4.8 µM.
